Columns and labels:
[1] = target: pancreatic lipase (PL); details: cited from earlier work
Description: Their mechanisms of action are closely linked to a high hydrophobic amino acid content. […] Among them, the pancreatic lipase activity of VWTP was better. […] (36.28% pan ...

[2] = system: intracellular triglyceride accumulation; details: ref [15]; cited from earlier work
Description: Their mechanisms of action are closely linked to a high hydrophobic amino acid content.

[3] = target: T1, pancreatic lipase (PL) (Sus scrofa, UniProt P00591); assay: PL inhibition assay (pNPP substrate); format: biochemical, porcine; details: CPPH-I at 8 mg/mL vs orlistat at 8 µg/mL; p > 0.05
T1 construct: Pancreatic lipase (derived from porcine pancreas); purchased Yuanye Biotech (Shanghai, China); host or cells: porcine pancreas
T1 sequence (P00591 1-450): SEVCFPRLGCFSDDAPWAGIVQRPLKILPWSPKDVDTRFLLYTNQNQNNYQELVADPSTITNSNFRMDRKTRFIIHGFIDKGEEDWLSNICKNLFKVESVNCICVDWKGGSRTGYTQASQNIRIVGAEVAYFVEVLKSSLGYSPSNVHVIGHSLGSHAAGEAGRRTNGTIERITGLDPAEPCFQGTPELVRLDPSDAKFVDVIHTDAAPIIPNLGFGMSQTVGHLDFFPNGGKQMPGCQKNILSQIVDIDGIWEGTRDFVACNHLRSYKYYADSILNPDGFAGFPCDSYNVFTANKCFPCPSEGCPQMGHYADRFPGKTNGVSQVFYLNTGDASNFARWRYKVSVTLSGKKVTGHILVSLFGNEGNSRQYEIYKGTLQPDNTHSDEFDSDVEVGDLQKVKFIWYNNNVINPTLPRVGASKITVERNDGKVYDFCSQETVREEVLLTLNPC
Description: To evaluate the inhibitory activity of the peptide fractions against PL, we conducted experiments according to Zhang et al.. Briefly, a mixture containing 120 μL of PL (10 mg/mL), 40 μL of peptide sample, and 80 μL of 50 mmol/L Tris-HCl buffer (pH 8.0) was incubated at 37 °C for 10 min. Then, 160 μL of 0.8 mmol/L p-nitrophenyl palmitate (pNPP) dissolved in dimethyl sulfoxide was added to initiate the reaction. After incubation at 37 °C for 20 min, the reaction was terminated by heating in a water bath at 100 °C for 5 min, followed by centrifugation to remove precipitated material. The absorbance of 200 μL of the supernatant was measured at 405 nm using a microplate reader (Infinite® 200 PRO, Tecan, Männedorf, Switzerland). For the control group, the peptide sample was replaced with an equal volume of buffer; in the blank group, the PL solution was replaced with buffer. Finally, the activity of PL was calculated using Equation (1). (1) PL activity%=[1−B−b/(A−a)]×100% where A denotes the absorbance of the control group, B the absorbance of the sample group, a the absorbance of the control blank group, and b the absorbance of the sample blank group.

[4] = target: T2, Pancreatic lipase (derived from porcine pancreas) (porcine) (UniProt P00591)
T2 sequence: T1 sequence (P00591 1-450)

FYLGYCDY [peptide derived from rice bran fat extract (literature)]
IC50 ([1]; peptide from rice bran, ref [13], read-out: Pancreatic lipase inhibition IC50): 470 ± 20 nM

LLVVYPWTQR [peptide isolated from Chlorella (literature)]
Pancreatic lipase inhibition (in words) ([1]; isolated from Chlorella, ref [15]): demonstrated efficacy in inhibiting pancreatic lipase
Reduction of intracellular triglyceride accumulation (in words) [2]: reducing intracellular triglyceride accumulation

SPFWNINAH [oat bran-derived peptide (literature)]
Pancreatic lipase-inhibitory activity (in words) ([1]; oat bran-derived, ref [14]): activity indicates its promise as an anti-obesity drug

CCCCCCCCCCC[C@@H](C[C@@H]1OC(=O)[C@H]1CCCCCC)OC(=O)[C@H](CC(C)C)NC=O [orlistat]
PL-I activity compared with orlistat [3]: no significant difference between CPPH-I and orlistat

IPYPL
PL inhibition rate at 2 mg/mL peptide (pNPP hydrolysis, absorbance at 405 nm) [4]: 4.49%

IVGPF
PL inhibition rate at 2 mg/mL peptide (pNPP hydrolysis, absorbance at 405 nm) [4]: 7.64%

FLSQPF
PL inhibition rate at 2 mg/mL peptide (pNPP hydrolysis, absorbance at 405 nm) [4]: 11.5%

Source: publication PMC12470121, “Exploring the Novel Pancreatic Lipase-Inhibitory Peptides in Chlorella pyrenoidosa: Preparation, Purification, Identification, and Molecular Docking” (Foods, 2025)
